We go through 20 compounds from US20110212968A1, “PHENETHYLAMIDE DERIVATIVES AND THEIR HETEROCYCLIC ANALOGUES” (priority 2008, published 2011).

Where only a bound is given, the exact number is not on record here.

One test has as its target T1, human orexin-1 receptor (Homo sapiens, UniProt O43613).
T1 construct: expressed in transfected cells; host or cells: CHO (Chinese hamster ovary) cells, kept under G418 selection
T1 sequence (O43613 1-425): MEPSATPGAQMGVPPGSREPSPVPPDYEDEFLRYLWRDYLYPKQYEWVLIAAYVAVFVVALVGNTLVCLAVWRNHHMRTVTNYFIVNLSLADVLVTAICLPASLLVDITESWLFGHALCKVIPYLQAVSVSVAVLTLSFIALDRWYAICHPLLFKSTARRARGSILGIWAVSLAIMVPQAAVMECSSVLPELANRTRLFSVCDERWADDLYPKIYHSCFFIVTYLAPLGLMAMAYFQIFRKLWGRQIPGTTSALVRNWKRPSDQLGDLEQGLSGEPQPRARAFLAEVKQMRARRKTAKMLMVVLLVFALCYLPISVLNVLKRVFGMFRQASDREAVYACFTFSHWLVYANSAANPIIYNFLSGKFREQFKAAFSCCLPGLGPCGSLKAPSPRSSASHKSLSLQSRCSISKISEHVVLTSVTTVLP
Nature of the test: Intracellular calcium measurement (FLIPR Tetra), orexin receptor antagonistic activity, OX1. The test is classed as cell-based. The following applies: CHO cells expressing human orexin-1 receptor, 3 nM orexin-A, conditions B, normalized (*) using IC50 of on-plate reference compound. In a few lines:
(§1)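 Recombinant CHO cells expressing human OX1 or OX2, loaded with fluo-4 AM plus probenecid, were preincubated with antagonist 10 min, then stimulated with 3 nM human orexin-A. Peak fluorescence was compared with vehicle; IC50 derived, sometimes normalized to an on-plate reference compound; two pipetting/cell-splitting conditions were used.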

Another test concerns the target T2, human orexin-2 receptor (Homo sapiens, UniProt O43614).
T2 construct: expressed in transfected cells; host or cells: CHO (Chinese hamster ovary) cells, kept under G418 selection
T2 sequence (O43614 1-444): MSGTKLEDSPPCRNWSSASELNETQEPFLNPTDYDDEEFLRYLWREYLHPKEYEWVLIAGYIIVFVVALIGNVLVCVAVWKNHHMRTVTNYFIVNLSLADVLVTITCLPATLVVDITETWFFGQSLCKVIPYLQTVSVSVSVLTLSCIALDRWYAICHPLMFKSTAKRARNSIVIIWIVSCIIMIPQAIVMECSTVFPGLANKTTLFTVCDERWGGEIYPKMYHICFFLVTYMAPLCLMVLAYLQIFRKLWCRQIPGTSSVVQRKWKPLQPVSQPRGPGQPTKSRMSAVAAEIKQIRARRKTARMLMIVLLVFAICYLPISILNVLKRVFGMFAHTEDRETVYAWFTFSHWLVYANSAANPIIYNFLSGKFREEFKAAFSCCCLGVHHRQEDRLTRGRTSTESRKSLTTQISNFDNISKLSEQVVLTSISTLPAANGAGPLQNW
The experiment in a line: Intracellular calcium measurement (FLIPR Tetra), orexin receptor antagonistic activity, OX2. The format is cell-based. The settings on record: CHO cells expressing human orexin-2 receptor, 3 nM orexin-A, conditions B, normalized (*) using IC50 of on-plate reference compound. In a few lines:
as §1

On to `COc1ccc(-c2cccnc2C(=O)N(CCc2c[nH]c3ccc(F)cc23)CC2CC2)cn1` [Example 400, 6′-Methoxy-[3,3′]bipyridinyl-2-carboxylic acid cyclopropylmethyl-[2-(5-fluoro-1H-indol-3-yl)-ethyl]-amide], for which the IC50 (commonly the midpoint of a concentration-inhibition curve) at human orexin-1 receptor was determined as 62 nM; on human orexin-2 receptor, 11 nM.

On to `Cc1cncc(-c2cccnc2C(=O)N(CCc2c[nH]c3ccc(F)cc23)CC2CC2)c1` [Example 402, 5′-Methyl-[3,3′]bipyridinyl-2-carboxylic acid cyclopropylmethyl-[2-(5-fluoro-1H-indol-3-yl)-ethyl]-amide], for which the figures for the concentration for half-maximal inhibition (IC50) on human orexin-1 receptor and at human orexin-2 receptor were 700 nM and 72 nM, respectively.

Turning to `O=C(c1ncccc1-c1cc(Cl)cnc1F)N(CCc1c[nH]c2ccc(F)cc12)CC1CC1` [Example 403, 5′-Chloro-2′-fluoro-[3,3′]bipyridinyl-2-carboxylic acid cyclopropylmethyl-[2-(5-fluoro-1H-indol-3-yl)-ethyl]-amide], the values for the IC50 on human orexin-1 receptor and on human orexin-2 receptor were 3830 nM and 230 nM, respectively.

Consider `O=C(c1ncccc1-c1cnc2ccccc2c1)N(CCc1c[nH]c2ccc(F)cc12)CC1CC1` [Example 404, 3-Quinolin-3-yl-pyridine-2-carboxylic acid cyclopropylmethyl-[2-(5-fluoro-1H-indol-3-yl)-ethyl]-amide], for which the half-maximal inhibitory concentration (IC50) on human orexin-1 receptor is 58 nM; at human orexin-2 receptor, 12 nM.

Turning to `COc1ccc(-c2sc(C)nc2C(=O)N(CCc2c[nH]c3ccc(F)cc23)CC2CC2)cc1C` [Example 410, 5-(4-Methoxy-3-methyl-phenyl)-2-methyl-thiazole-4-carboxylic acid cyclopropylmethyl-[2-(5-fluoro-1H-indol-3-yl)-ethyl]-amide], the figures for the IC50 at human orexin-1 receptor and at human orexin-2 receptor were 3650 nM and 145 nM, respectively.

With `Cc1nc(C(=O)N(CCc2c[nH]c3ccc(F)cc23)CC2CC2)c(-c2ccc(F)c(CO)c2)s1` [Example 418, 5-(4-Fluoro-3-hydroxymethyl-phenyl)-2-methyl-thiazole-4-carboxylic acid cyclopropylmethyl-[2-(5-fluoro-1H-indol-3-yl)-ethyl]-amide], the 50% inhibitory concentration (IC50) worked out at 148 nM on human orexin-1 receptor and 13 nM at human orexin-2 receptor.

As for `Cc1nc(C(=O)N(CCc2c[nH]c3ccc(F)cc23)CC2CC2)c(-c2ccc(C#N)c(F)c2)s1` [Example 419, 5-(4-Cyano-3-fluoro-phenyl)-2-methyl-thiazole-4-carboxylic acid cyclopropylmethyl-[2-(5-fluoro-1H-indol-3-yl)-ethyl]-amide], the IC50 at human orexin-1 receptor turned out to be 2510 nM; at human orexin-2 receptor it was 100 nM.

Take `COc1nccc(-c2sc(C)nc2C(=O)N(CCc2c[nH]c3ccc(F)cc23)CC2CC2)c1Cl` [Example 420, 5-(3-Chloro-2-methoxy-pyridin-4-yl)-2-methyl-thiazole-4-carboxylic acid cyclopropylmethyl-[2-(5-fluoro-1H-indol-3-yl)-ethyl]-amide]: the results for the IC50 at human orexin-1 receptor and at human orexin-2 receptor were 373 nM and 83 nM, respectively.

In the case of `COc1ccc(-c2sc(C)nc2C(=O)N(CCc2c[nH]c3ccc(F)cc23)CC2CC2)cn1` [Example 421, 5-(6-Methoxy-pyridin-3-yl)-2-methyl-thiazole-4-carboxylic acid cyclopropylmethyl-[2-(5-fluoro-1H-indol-3-yl)-ethyl]-amide], the figures for the IC50 at human orexin-1 receptor and on human orexin-2 receptor were 34 nM and 4 nM, respectively.

As for `Cc1nc(C(=O)N(CCc2c[nH]c3ccc(F)cc23)CC2CC2)c(-c2ccc(CO)nc2)s1` [Example 423, 5-(6-Hydroxymethyl-pyridin-3-yl)-2-methyl-thiazole-4-carboxylic acid cyclopropylmethyl-[2-(5-fluoro-1H-indol-3-yl)-ethyl]-amide], the IC50 is 1610 nM at human orexin-1 receptor and 53 nM on human orexin-2 receptor.

In the case of `CSc1cncc(-c2sc(C)nc2C(=O)N(CCc2c[nH]c3ccc(F)cc23)CC2CC2)c1` [Example 424, 2-Methyl-5-(5-methylsulfanyl-pyridin-3-yl)-thiazole-4-carboxylic acid cyclopropylmethyl-[2-(5-fluoro-1H-indol-3-yl)-ethyl]-amide], the half-inhibitory concentration (IC50) at human orexin-1 receptor was 180 nM; on human orexin-2 receptor it was 47 nM.

With `Cc1cncc(-c2sc(C)nc2C(=O)N(CCc2c[nH]c3ccc(F)cc23)CC2CC2)c1` [Example 426, 2-Methyl-5-(5-methyl-pyridin-3-yl)-thiazole-4-carboxylic acid cyclopropylmethyl-[2-(5-fluoro-1H-indol-3-yl)-ethyl]-amide], the figures for the IC50 at human orexin-1 receptor and at human orexin-2 receptor were 292 nM and 50 nM, respectively.

As for `Cc1nc(C(=O)N(CCc2c[nH]c3ccc(F)cc23)CC2CC2)c(-c2cnc3ccccc3c2)s1` [Example 428, 2-Methyl-5-quinolin-3-yl-thiazole-4-carboxylic acid cyclopropylmethyl-[2-(5-fluoro-1H-indol-3-yl)-ethyl]-amide], the IC50 on human orexin-1 receptor was 83 nM; at human orexin-2 receptor, 18 nM.

Regarding `Cc1nc(C(=O)N(CCc2c[nH]c3ccc(F)cc23)CC2CC2)c(-c2ccc3cc[nH]c3c2)s1` [Example 430, 5-(1H-Indol-6-yl)-2-methyl-thiazole-4-carboxylic acid cyclopropylmethyl-[2-(5-fluoro-1H-indol-3-yl)-ethyl]-amide], the IC50 is 104 nM on human orexin-1 receptor and 21 nM on human orexin-2 receptor.

In the case of `Cc1cccc(-c2sc(CN)nc2C(=O)N(CCc2c[nH]c3ccc(F)cc23)CC2CC2)c1` [Example 433, 2-Aminomethyl-5-m-tolyl-thiazole-4-carboxylic acid cyclopropylmethyl-[2-(5-fluoro-1H-indol-3-yl)-ethyl]-amide], the IC50 was 280 nM at human orexin-1 receptor and 239 nM on human orexin-2 receptor.

In the case of `Cc1ccc(-c2nccnc2C(=O)N(CCN)CCc2c[nH]c3ccc(F)cc23)cc1C` [Example 434, 3-(3,4-Dimethyl-phenyl)-pyrazine-2-carboxylic acid (2-amino-ethyl)-[2-(5-fluoro-1H-indol-3-yl)-ethyl]amide], the IC50 on human orexin-1 receptor was more than 5420 nM; at human orexin-2 receptor, 816 nM.

In the case of `CNc1nc(C(=O)N(CCc2c[nH]c3ccc(F)cc23)CC2CC2)c(-c2cccc(C)c2)s1` [Example 435, 2-Methylamino-5-m-tolyl-thiazole-4-carboxylic acid cyclopropylmethyl-[2-(5-fluoro-1H-indol-3-yl)-ethyl]amide], the IC50 at human orexin-1 receptor is 54 nM; at human orexin-2 receptor it was 32 nM.

As to `COc1ccc(-c2nccnc2C(=O)N(CCc2c[nH]c3c(C)cccc23)CC2CC2)cc1` [Example 436, 3-(4-Methoxy-phenyl)-pyrazine-2-carboxylic acid cyclopropylmethyl-[2-(7-methyl-1H-indol-3-yl)-ethyl]-amide], the figures for the IC50 on human orexin-1 receptor and at human orexin-2 receptor were 24 nM and 2 nM, respectively.

Regarding `COc1ccc(-c2nccnc2C(=O)N(CCc2c[nH]c3c(C)cccc23)CC2CC2)cn1` [Example 437, 3-(6-Methoxy-pyridin-3-yl)-pyrazine-2-carboxylic acid cyclopropylmethyl-[2-(7-methyl-1H-indol-3-yl)-ethyl]-amide], the IC50 on human orexin-1 receptor worked out at 43 nM; at human orexin-2 receptor, 3 nM.

Regarding `Cc1cccc2c(CCN(CC3CC3)C(=O)c3nccnc3-c3cncnc3)c[nH]c12` [Example 438, 3-Pyrimidin-5-yl-pyrazine-2-carboxylic acid cyclopropylmethyl-[2-(7-methyl-1H-indol-3-yl)-ethyl]-amide], the IC50 at human orexin-1 receptor was more than 11100 nM; at human orexin-2 receptor, 50 nM.
